IC50 and Ratio IC50 data for 17 molecules are collected here from ChEMBL document CHEMBL1136955, “Compelling P1 substituent affect on metalloprotease binding profile enables the design of a novel cyclohexyl core scaffold with excellent MMP selectivity and HER-2 sheddase inhibition” (Bioorg Med Chem Lett, 2009).

Assay [1] deals with T1, Disintegrin and metalloproteinase domain-containing protein 10 (Homo sapiens, UniProt O14672).
T1 sequence (O14672 whole entry): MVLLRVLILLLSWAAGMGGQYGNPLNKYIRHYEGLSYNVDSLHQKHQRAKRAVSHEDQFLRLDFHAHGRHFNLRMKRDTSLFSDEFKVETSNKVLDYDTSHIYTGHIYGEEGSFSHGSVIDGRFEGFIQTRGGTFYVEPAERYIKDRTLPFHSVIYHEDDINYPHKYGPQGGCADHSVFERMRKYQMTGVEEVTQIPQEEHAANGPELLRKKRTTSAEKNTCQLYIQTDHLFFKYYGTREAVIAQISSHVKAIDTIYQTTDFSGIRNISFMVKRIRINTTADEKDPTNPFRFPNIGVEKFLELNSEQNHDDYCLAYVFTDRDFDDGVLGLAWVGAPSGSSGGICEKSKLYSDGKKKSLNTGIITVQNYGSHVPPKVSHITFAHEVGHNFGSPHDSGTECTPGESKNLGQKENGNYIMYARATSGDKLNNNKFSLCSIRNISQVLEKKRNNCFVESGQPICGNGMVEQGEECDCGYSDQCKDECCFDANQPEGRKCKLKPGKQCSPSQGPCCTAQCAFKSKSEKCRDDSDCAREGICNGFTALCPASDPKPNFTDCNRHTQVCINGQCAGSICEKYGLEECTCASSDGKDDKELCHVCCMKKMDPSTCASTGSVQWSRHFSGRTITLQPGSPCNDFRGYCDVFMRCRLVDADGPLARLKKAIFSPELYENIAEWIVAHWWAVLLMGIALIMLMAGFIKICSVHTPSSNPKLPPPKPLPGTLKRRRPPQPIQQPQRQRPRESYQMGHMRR
Put plainly: Inhibition of human recombinant ADAM10.

The target in assay [2] is 72 kDa type IV collagenase (Homo sapiens, UniProt P08253). The assay can be described thus: Inhibition of human MMP2.
A further assay has as its target T2, Interstitial collagenase (Homo sapiens, UniProt P03956).
T2 sequence (P03956 whole entry): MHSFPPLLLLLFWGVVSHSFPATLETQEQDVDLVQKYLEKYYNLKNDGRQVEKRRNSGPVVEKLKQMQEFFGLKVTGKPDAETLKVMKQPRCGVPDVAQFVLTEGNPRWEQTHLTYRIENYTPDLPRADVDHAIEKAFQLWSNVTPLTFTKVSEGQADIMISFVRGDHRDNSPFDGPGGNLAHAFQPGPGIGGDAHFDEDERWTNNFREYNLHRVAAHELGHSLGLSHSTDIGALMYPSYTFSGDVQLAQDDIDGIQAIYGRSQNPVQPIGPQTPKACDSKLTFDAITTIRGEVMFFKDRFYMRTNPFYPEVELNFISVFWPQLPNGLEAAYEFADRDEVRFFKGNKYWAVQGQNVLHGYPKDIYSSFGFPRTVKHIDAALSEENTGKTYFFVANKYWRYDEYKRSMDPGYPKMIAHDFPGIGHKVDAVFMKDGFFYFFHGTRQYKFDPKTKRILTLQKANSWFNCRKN
Put plainly: Inhibition of human MMP1.

For assay [3], the target named is Matrix metalloproteinase-9 (Homo sapiens, UniProt P14780). The assay can be described thus: Inhibition of human MMP9.
In another assay the target is Stromelysin-1 (Homo sapiens, UniProt P08254). Put plainly: Inhibition of human MMP3.
The species named for the next assay is Homo sapiens. Put plainly: Selectivity ratio of IC50 for human MMP2 to IC50 for human ADAM10.

Structures are written as SMILES. pIC50: −log10 of the molar value.

Stromelysin-1, sequence (P08254 whole entry): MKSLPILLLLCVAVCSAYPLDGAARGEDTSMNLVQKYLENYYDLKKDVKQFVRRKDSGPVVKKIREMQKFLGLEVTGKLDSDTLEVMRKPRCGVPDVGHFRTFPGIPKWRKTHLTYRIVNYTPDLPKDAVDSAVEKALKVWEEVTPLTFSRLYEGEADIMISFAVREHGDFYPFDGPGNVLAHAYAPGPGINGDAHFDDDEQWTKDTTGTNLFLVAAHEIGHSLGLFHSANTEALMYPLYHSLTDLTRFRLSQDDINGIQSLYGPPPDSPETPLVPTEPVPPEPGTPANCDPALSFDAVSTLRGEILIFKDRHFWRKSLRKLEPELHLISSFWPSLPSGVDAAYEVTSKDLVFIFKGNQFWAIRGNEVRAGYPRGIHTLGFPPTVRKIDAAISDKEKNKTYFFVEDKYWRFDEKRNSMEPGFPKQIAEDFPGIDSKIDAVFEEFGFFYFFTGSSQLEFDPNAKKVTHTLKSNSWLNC
72 kDa type IV collagenase, sequence (P08253 whole entry): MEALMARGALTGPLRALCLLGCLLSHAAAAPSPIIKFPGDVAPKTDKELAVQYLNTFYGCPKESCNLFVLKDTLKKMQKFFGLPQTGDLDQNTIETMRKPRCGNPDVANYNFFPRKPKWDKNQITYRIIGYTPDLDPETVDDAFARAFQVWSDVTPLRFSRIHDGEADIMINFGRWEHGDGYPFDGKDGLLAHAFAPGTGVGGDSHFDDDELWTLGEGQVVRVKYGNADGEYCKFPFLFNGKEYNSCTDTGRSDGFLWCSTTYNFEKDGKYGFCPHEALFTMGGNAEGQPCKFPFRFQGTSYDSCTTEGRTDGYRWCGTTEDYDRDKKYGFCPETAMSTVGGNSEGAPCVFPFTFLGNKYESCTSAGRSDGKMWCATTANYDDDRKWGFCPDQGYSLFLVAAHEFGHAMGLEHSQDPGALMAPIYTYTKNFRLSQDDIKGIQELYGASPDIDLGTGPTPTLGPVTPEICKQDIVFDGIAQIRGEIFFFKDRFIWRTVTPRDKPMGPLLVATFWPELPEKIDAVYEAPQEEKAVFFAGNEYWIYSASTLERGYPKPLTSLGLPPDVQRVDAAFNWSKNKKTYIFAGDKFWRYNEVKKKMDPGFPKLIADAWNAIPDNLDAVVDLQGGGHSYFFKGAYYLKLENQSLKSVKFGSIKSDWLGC
Matrix metalloproteinase-9, sequence (P14780 whole entry): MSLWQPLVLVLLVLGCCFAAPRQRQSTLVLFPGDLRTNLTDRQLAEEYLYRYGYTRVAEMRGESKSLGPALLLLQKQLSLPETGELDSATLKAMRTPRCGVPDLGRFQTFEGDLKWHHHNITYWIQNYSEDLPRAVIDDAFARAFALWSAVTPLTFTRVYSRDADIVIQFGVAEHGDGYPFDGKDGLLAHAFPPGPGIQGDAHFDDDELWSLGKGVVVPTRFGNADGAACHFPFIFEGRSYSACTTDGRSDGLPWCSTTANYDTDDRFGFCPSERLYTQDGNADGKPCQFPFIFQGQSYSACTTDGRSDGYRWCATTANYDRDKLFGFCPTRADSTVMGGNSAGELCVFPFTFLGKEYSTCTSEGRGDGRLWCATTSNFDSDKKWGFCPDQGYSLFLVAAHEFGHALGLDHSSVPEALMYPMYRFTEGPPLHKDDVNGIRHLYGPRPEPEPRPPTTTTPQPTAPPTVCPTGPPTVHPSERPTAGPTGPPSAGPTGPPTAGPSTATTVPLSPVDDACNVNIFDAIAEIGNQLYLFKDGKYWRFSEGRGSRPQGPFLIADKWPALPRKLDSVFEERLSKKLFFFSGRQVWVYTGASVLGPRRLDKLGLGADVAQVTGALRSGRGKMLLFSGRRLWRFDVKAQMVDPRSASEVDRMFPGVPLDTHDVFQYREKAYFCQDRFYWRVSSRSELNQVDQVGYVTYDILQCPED

Consider `CN1CC(CC(=O)N2CCCCC2)C[C@H](C(=O)NO)[C@H]1C(=O)N1CCN(c2ccccc2)CC1` (mixture of isomers), for which the pIC50 is 7.11 in assay [1] and 7.09 in assay [2].

`O=C(NO)[C@H]1CCCC[C@@H]1C(=O)N1CCN(c2ccccc2)CC1`: the negative-log IC50 (pIC50) was 5.81 in assay [1], under 5.30 at Interstitial collagenase and 6.74 in assay [2].

Turning to `CC(C)c1cccc(C2CCN(C(=O)[C@H]3CC[C@H](CC(=O)N4CCCCC4)C[C@@H]3C(=O)NO)CC2)c1`, the pIC50 in assay [1] is 7.68; against Interstitial collagenase it was under 5.30; in assay [2] it was under 5.30; in assay [3] it was under 5.30; against Stromelysin-1, under 5.30.

As for `NCCCCCNC(=O)CC1CN[C@H](C(=O)N2CCC(c3ccccc3)C2)[C@@H](C(=O)NO)C1` (mixture of isomers), the pIC50 in assay [1] is 6.79; against Interstitial collagenase, under 5.30; in assay [2], 5.78; in assay [3], under 5.30; at Stromelysin-1 it was under 5.30.

Turning to `O=C(NO)[C@H]1CC2(CC[C@@H]1C(=O)N1CCN(c3ccccc3)CC1)CC2` (mixture of isomers), the pIC50 is 6.71 in assay [1]; under 5.30 against Interstitial collagenase; 6.97 in assay [2]; 6.24 in assay [3]; under 5.30 on Stromelysin-1. In addition, the Ratio IC50 in the assay filed under Homo sapiens came out at 2.

In the case of `O=C(NO)[C@H]1CC(CC(=O)N2CCCC2)CN[C@@H]1C(=O)N1CCN(c2ccccc2)CC1` (mixture of isomers), the pIC50 in assay [1] is 7.72; in assay [2], 8.10.

Regarding `CN1CCN(C(=O)CC2CC[C@H](C(=O)N3CCN(c4ccccc4)CC3)[C@@H](C(=O)NO)C2)CC1` (mixture of isomers), the negative-log IC50 (pIC50) in assay [1] was 7.52; against Interstitial collagenase, under 5.30; in assay [2], 7.17; in assay [3], 5.60; against Stromelysin-1, under 5.30.

In the case of `O=C(NO)[C@H]1CC(CC(=O)N2CCOCC2)CC[C@@H]1C(=O)N1CCN(c2ccccc2)CC1` (some centres undefined), the pIC50 in assay [1] was 7.08; in assay [2] it was 6.63.

In the case of `O=C(NO)[C@H]1CC2(CC2)CN[C@@H]1C(=O)N1CCC(c2ccccc2)C1` (some centres undefined), the values for the negative logarithm of the IC50 (pIC50) (in assay [2]; in assay [3]; on Stromelysin-1) were 6.00, under 5.30 and under 5.30, respectively.

Take `O=C(NO)[C@H]1CC(CC(=O)N2CCCC2)CC[C@@H]1C(=O)N1CCN(c2ccccc2)CC1` (mixture of isomers): the pIC50 in assay [1] was 7.19; against Interstitial collagenase, under 5.30; in assay [2] it was 6.57; in assay [3], 5.84; at Stromelysin-1, under 5.30.

`O=C(NO)[C@H]1C[C@H](CC(=O)N2CCCCC2)CC[C@@H]1C(=O)N1CCN(c2ccccc2)CC1` had a negative logarithm of the IC50 (pIC50) in assay [2] of 5.96.

In the case of `O=C(NO)[C@H]1CC(CC(=O)N2CC[C@@H](O)C2)CC[C@@H]1C(=O)N1CCN(c2ccccc2)CC1` (mixture of isomers), the pIC50 was 6.95 in assay [1] and 6.81 in assay [2].

In the case of `CN1CC(CC(=O)N2CCCC2)C[C@H](C(=O)NO)[C@H]1C(=O)N1CCN(c2ccccc2)CC1` (mixture of isomers), the pIC50 was 6.78 in assay [1] and 7.04 in assay [2].

As to `O=C(NO)[C@H]1C[C@@H](CC(=O)N2CCCCC2)CC[C@@H]1C(=O)N1CCN(c2ccccc2)CC1`, the pIC50 in assay [1] was 7.82; at Interstitial collagenase, under 5.30; in assay [2] it was 7.00; in assay [3], 6.17; against Stromelysin-1 it was under 5.30.

Consider `O=C(CC1CN[C@H](C(=O)N2CCC(c3ccccc3)C2)[C@@H](C(=O)NO)C1)NCCCCCNC(=O)OCc1ccccc1` (mixture of isomers), for which the negative-log IC50 (pIC50) in assay [1] is 6.52; against Interstitial collagenase it was under 5.30; in assay [2] it was 5.89; in assay [3] it was 5.75; against Stromelysin-1 it was 5.30.

Consider `CC(C)c1cccc(C2CCN(C(=O)[C@H]3CC[C@@H](CC(=O)N4CCCCC4)C[C@@H]3C(=O)NO)CC2)c1`, for which the results for the negative logarithm of the IC50 (pIC50) in assay [1] and in assay [2] were 6.04 and under 5.30, respectively.

On to `O=C(NO)[C@H]1CC(CC(=O)N2CCCCC2)CC[C@@H]1C(=O)N1CCN(c2ccccc2)CC1` (mixture of isomers), for which the pIC50 was under 5.30 on Interstitial collagenase, 6.49 in assay [2], 5.73 in assay [3] and under 5.30 against Stromelysin-1.

For orientation: pIC50 means −log10 of the IC50, conventionally taken in molar units.
